Laboratory results as given in patent US20220159955A1, “METHOD OF IMPROVING PLANT GROWTH” (UPL LTD, priority 2020, published 2022).
“Also recorded” adds a separate entry of the source.

Tests used:
Type in all cases: in vivo
corn seeds [1] = experiment: Germination of flonicamid-treated corn seeds, line sowing (Example 2); conditions: for Average germination %: corn seed
Experimental: In this experiment the effect of flonicamid was tested on corn seeds. Treated and untreated seeds were sown to see the impact of flonicamid on the plant germination. Treatments are performed using FS formulation of example 1. A line sowing method was used to sow the seeds.

transplanted rice [2] = experiment: Seed treatment in transplanted rice: plant height, PGE rating, tillers (Example 5)
rice (DSR) [3] = experiment: Seed treatment in rice (DSR): plant height, PGE rating, tillers (Example 4)
rice (DSR) [4] = experiment: Seed treatment in rice (DSR): germination and crop safety (Example 4)
Thrips [5] = experiment: Efficacy of seed treatment on thrips in transplanted rice (Example 5)
corn seeds [6] = experiment: Plant vigour visual rating of corn from treated seeds (Example 3); parameters: Average Plant Vigor visual rating: scale not given here
Experimental: In this experiment the effect was tested on corn seeds. Treated and untreated seeds were sown to see the impact of flonicamid on the plant vigour. A line sowing method was used to sow the seeds.

corn seeds [7] = experiment: Phytotoxicity after seed treatment, corn; conditions: treatment of seeds
Thrips [8] = experiment: Efficacy of seed treatment on thrips in direct sown rice (Example 4)
transplanted rice [9] = experiment: Seed treatment in transplanted rice: germination and crop safety (Example 5)
rice (DSR) [10] = experiment: Seed treatment in rice (DSR): rice grain yield (Example 4)

Compound: N#CCNC(=O)c1cnccc1C(F)(F)F [Flonicamid, N-cyanomethyl-4-trifluoromethylnicotinamide]
- Average germination % (corn seeds [1]; 5 g/ml/kg Seed, 5DAS): 77.5%
- Average germination % (corn seeds [1]; 5 g/ml/kg Seed, 10DAS): 97.5%
- Average germination % (corn seeds [1]; 5 g/ml/kg Seed, 15DAS): 97.5%
- Average germination % (corn seeds [1]; 10 g/ml/kg Seed, 5DAS): 82.5%
- Average germination % (corn seeds [1]; 10 g/ml/kg Seed, 10DAS): 98%
- Average germination % (corn seeds [1]; 10 g/ml/kg Seed, 15DAS): 98%
- germination of tested corn seeds (in words) (corn seeds [1]; corn, seed treatment vs untreated): significant improvement in germination; also recorded: Enhanced germination %
- Plant height (cm) (transplanted rice [2]; 5 ml/kg Seed, 15DAS): 51.5 cm
- Plant height (cm) (transplanted rice [2]; 5 ml/kg Seed, 20DAS): 72.8 cm
- PGE rating (transplanted rice [2]; 5 ml/kg Seed, 30 DAS): 2
- No. of tiller/hill (transplanted rice [2]; 5 ml/kg Seed, 45DAS): 20.8 tiller/hill
- PGE rating (transplanted rice [2]; 5 ml/kg Seed, 45DAS): 2
- No. of tiller/hill (transplanted rice [2]; 5 ml/kg Seed, 60DAS): 22.6 tiller/hill
- Plant height (cm) (transplanted rice [2]; 10 ml/kg Seed, 15DAS): 58.4 cm
- Plant height (cm) (transplanted rice [2]; 10 ml/kg Seed, 20DAS): 78.5 cm
- PGE rating (transplanted rice [2]; 10 ml/kg Seed, 30 DAS): 1
- No. of tiller/hill (transplanted rice [2]; 10 ml/kg Seed, 45DAS): 25.6 tiller/hill
- PGE rating (transplanted rice [2]; 10 ml/kg Seed, 45DAS): 1
- No. of tiller/hill (transplanted rice [2]; 10 ml/kg Seed, 60DAS): 28.5 tiller/hill
- PGE rating (rice (DSR) [3]; 5 ml/kg Seed, 15 DAS): 2
- Plant hight (cm) (rice (DSR) [3]; 5 ml/kg Seed, 15 DAS): 12.83 cm
- Plant hight (cm) (rice (DSR) [3]; 5 ml/kg Seed, 20 DAS): 22.45 cm
- PGE rating (rice (DSR) [3]; 5 ml/kg Seed, 30 DAS): 2
- No. of tiller/hill (rice (DSR) [3]; 5 ml/kg Seed, 45 DAS): 13.5 tiller/hill
- PGE rating (rice (DSR) [3]; 5 ml/kg Seed, 45 DAS): 3
- No. of tiller/hill (rice (DSR) [3]; 5 ml/kg Seed, 60 DAS): 15.3 tiller/hill
- PGE rating (rice (DSR) [3]; 10 ml/kg Seed, 15 DAS): 1
- Plant hight (cm) (rice (DSR) [3]; 10 ml/kg Seed, 15 DAS): 15.33 cm
- Plant hight (cm) (rice (DSR) [3]; 10 ml/kg Seed, 20 DAS): 26.66 cm
- PGE rating (rice (DSR) [3]; 10 ml/kg Seed, 30 DAS): 1
- No. of tiller/hill (rice (DSR) [3]; 10 ml/kg Seed, 45 DAS): 17.2 tiller/hill
- PGE rating (rice (DSR) [3]; 10 ml/kg Seed, 45 DAS): 2
- No. of tiller/hill (rice (DSR) [3]; 10 ml/kg Seed, 60 DAS): 19.7 tiller/hill
- crop vigour parameter (in words) (rice (DSR) [3]; seed treatment vs untreated): improvement in crop vigour parameter
- % Germination (rice (DSR) [4]; 5 ml/kg Seed): 90%
- No. of germinated seed/sq · m (rice (DSR) [4]; 5 ml/kg Seed, 5DAS): 65.3 seed/sq · m
- No. of germinated seed/sq · m (rice (DSR) [4]; 5 ml/kg Seed, 10DAS): 69.6 seed/sq · m
- No. of germinated seed/sq · m (rice (DSR) [4]; 5 ml/kg Seed, 15 DAS): 70.6 seed/sq · m
- % Germination (rice (DSR) [4]; 10 ml/kg Seed): 98%
- No. of germinated seed/sq · m (rice (DSR) [4]; 10 ml/kg Seed, 5DAS): 70.6 seed/sq · m
- No. of germinated seed/sq · m (rice (DSR) [4]; 10 ml/kg Seed, 10DAS): 73.3 seed/sq · m
- No. of germinated seed/sq · m (rice (DSR) [4]; 10 ml/kg Seed, 15 DAS): 78.6 seed/sq · m
- plant growth/germination (in words) (rice (DSR) [4]; seed treatment vs untreated): enhanced plant growth/germination
- No. of Thrips/Seedling (Thrips [5]; 5 ml/kg Seed, 15DAS): 2.5 Thrips /Seedling
- No. of Thrips/Seedling (Thrips [5]; 5 ml/kg Seed, 20DAS): 7.2 Thrips /Seedling
- No. of Thrips/Seedling (Thrips [5]; 5 ml/kg Seed, 25DAS): 11.5 Thrips /Seedling
- No. of Thrips/Seedling (Thrips [5]; 10 ml/kg Seed, 15DAS): 1.2 Thrips /Seedling
- No. of Thrips/Seedling (Thrips [5]; 10 ml/kg Seed, 20DAS): 5.6 Thrips /Seedling
- No. of Thrips/Seedling (Thrips [5]; 10 ml/kg Seed, 25DAS): 9.3 Thrips /Seedling
- Average Plant Vigor visual rating (corn seeds [6]; 5 g/ml/kg Seed, 10DAS): 2
- Average Plant Vigor visual rating (corn seeds [6]; 5 g/ml/kg Seed, 20DAS): 1
- Average Plant Vigor visual rating (corn seeds [6]; 5 g/ml/kg Seed, 30DAS): 1
- Average Plant Vigor visual rating (corn seeds [6]; 5 g/ml/kg Seed, 40DAS): 1
- Average Plant Vigor visual rating (corn seeds [6]; 10 g/ml/kg Seed, 10DAS): 2
- Average Plant Vigor visual rating (corn seeds [6]; 10 g/ml/kg Seed, 20DAS): 1
- Average Plant Vigor visual rating (corn seeds [6]; 10 g/ml/kg Seed, 30DAS): 1
- Average Plant Vigor visual rating (corn seeds [6]; 10 g/ml/kg Seed, 40DAS): 1
- growth versus untreated control (in words) (corn seeds [6]; 30 days after sowing): Excellent growth
- phytotoxicity (corn seeds [7]): no phytotoxicity was observed
- No. of Thrips/Seedling (Thrips [8]; 5 ml/kg Seed, 15DAS): 4.5 Thrips/Seedling
- No. of Thrips/Seedling (Thrips [8]; 5 ml/kg Seed, 20DAS): 8.3 Thrips/Seedling
- No. of Thrips/Seedling (Thrips [8]; 5 ml/kg Seed, 25DAS): 12.3 Thrips/Seedling
- No. of Thrips/Seedling (Thrips [8]; 10 ml/kg Seed, 15DAS): 1.3 Thrips/Seedling
- No. of Thrips/Seedling (Thrips [8]; 10 ml/kg Seed, 20DAS): 4.8 Thrips/Seedling
- No. of Thrips/Seedling (Thrips [8]; 10 ml/kg Seed, 25DAS): 7.2 Thrips/Seedling
- control of thrips (in words) (Thrips [8]; seed treatment vs untreated): better control of thrips
- % Germination (transplanted rice [9]; 5 ml/kg Seed): 86%
- No. of germinated seed/sq · m (transplanted rice [9]; 5 ml/kg Seed, 5DAS): 98 seed/sq · m
- No. of germinated seed/sq · m (transplanted rice [9]; 5 ml/kg Seed, 10DAS): 102 seed/sq · m
- No. of germinated seed/sq · m (transplanted rice [9]; 5 ml/kg Seed, 15DAS): 108 seed/sq · m
- % Germination (transplanted rice [9]; 10 ml/kg Seed): 98%
- No. of germinated seed/sq · m (transplanted rice [9]; 10 ml/kg Seed, 5DAS): 110 seed/sq · m
- No. of germinated seed/sq · m (transplanted rice [9]; 10 ml/kg Seed, 10DAS): 120 seed/sq · m
- No. of germinated seed/sq · m (transplanted rice [9]; 10 ml/kg Seed, 15DAS): 128 seed/sq · m
- Rice grain yield t/ha (rice (DSR) [10]; 5 ml/kg Seed): 4.53 t/ha
- Rice grain yield t/ha (rice (DSR) [10]; 10 ml/kg Seed): 4.85 t/ha
